Test results published in patent publication US12156860B2, “Disorders implicating PUFA oxidation” (BioJiva LLC, priority 2011, dated 2024).

How the values were obtained:
[1] = test system: stroke-prone spontaneously hypertensive (SHRSP) rat; test: SHRSP rat model of hypertension; type: in vivo; conditions: SHRSP rats, 8 weeks
From the text: The stroke-prone spontaneously hypertensive (SHRSP) rat model of hypertension, which has been previously described (McIntyre et al., 1997 Hypertension 30:1517; Alexander et al., 1999 Cardiovasc. Res. 43:798; Fennell et al., 2002 Gene Ther. 9:110), can be used for the assessment of a compound's ability to mitigate hypertension.

[2] = Oxidation of mixtures of LA and D2-LA in chlorobenzene; type: physicochemical
Procedure: FIG. 8. Dependence of the rate of oxidation of the mixture of LA and D2-LA in chlorobenzene solution on mixture composition. Conditions: [LA]+[11,11-d2-LA]=0.775 M; [AMVN]=0.0217 M; 37° C. RIN=(1.10±0.08)×10^−7 M/sec.
To simulate the likely in vivo conditions, the kinetics of the oxidation of the mixtures of D2-LA and LA were studied (FIG. 8). In the experiments, the concentration of LA plus 11,11-d2-LA was 0.775 M; the concentration of AMVN was 0.0217 M; and the reactions were carried out at 37° C. The results afforded an RIN of 1.10±0.08×10^−7 M/sec.

[3] = test system: alcoholic liver disease rats; test: Alcoholic liver disease and cirrhosis induced by 5% ethanol diet; type: in vivo, Rattus norvegicus, Wistar; conditions: 5% ethanol diet rats, daily over three months
Procedure: (§1) Fifty male heterozygous rats, 45-days-old, from the Rattus norvegicus species and Wistar lineage are kept in polypropylene cages, in groups of five animals, under a 12 h-clear/dark cycle and under controlled temperature conditions. The induction of alcoholic liver disease and cirrhosis is carried out through a diet containing 5% ethanol for 6 weeks. […] During the study period, the animals are weighed on a weekly basis and the drugs dose is readjusted as necessary. On the first day of the study, besides determining the animals' weight, their blood is collected through retro-orbital plexus puncture for biochemical analysis: alanine-aminotransferase (ALT) and aspartate-aminotransferase (AST) (colorimetric test, using the Labtest kit). One day after concluding the induction period and compound administration (90 days), the animals are sacrificed by decapitation. Once more, each animal's blood is collected for biochemical analysis. Then, laparotomy with total hepatectomy and liver preparation are carried out for lipoperoxidation (LPO) and histological analysis. Liver tissue samples are analyzed using the thiobarbituric-acid reactant substance (TBARS) measurement according to known methods (See Lowry et al. Protein measurement with the folin phenol reagent. J Biol Chem. 1951; 193:265-75) and the results are expressed in nmol of malondialdehyde/mg of protein. Slides with liver fragments are also dyed with hematoxilin-eosine and picrosirius, in order to evaluate the fibrosis level, and with Perls to evaluate the presence of iron stores, having been examined by an only pathologist blinded to the animals' data.

Wild-type yeast cells = test: C11-Bodipy 581/591 lipid peroxidation in copper-stressed yeast; type: cell-based, S. cerevisiae; conditions: 200 μM fatty acid 2 hours, then 50 μM CuSO4 60 min
Procedure: Wild-type yeast cells were treated as described above except the yeast were treated with 200 μM of the designated fatty acid for 2 hours, washed with sterile water, and were either not treated (triangles) or treated with 50 μM CuSO4 (squares) at room temperature. After 60 min of copper treatment cells were treated with 8 μM C11-Bodipy 581/591 for 30 min at room temperature. Four 100 μl aliquots were plated in a 96-well plate and the fluorescence was measured.

NASH (MCD diet) rats = test: NASH induced by methionine and choline deficient diet; type: in vivo, Rattus norvegicus, Wistar; conditions: daily over three months
Procedure: as §1, with “NASH” for “alcoholic liver disease and cirrhosis”, “deficient in methionine and choline (MCD) according to known procedures (See Rogers A E, Newberne P M. Alcoholic and nutritional fatty liver and cirrhosis. Am J Pathol. 1973; 73:817-20).” for “containing 5% ethanol for 6 weeks.”, “days),” for “days), the”, “data. The minimum histological criterion for NASH diagnosis is the presence of hepatocellular ballooning-related steatosis, involving zone 3 and lobular inflammatory infiltrate. Mallory corpuscles and sinusoidal fibrosis, involving zone 3 might be present or not. The graduation of both necroinflammatory and fibrosis activity is carried out according to known classifications (See Brunt E M, Janney C G, Di Bisceglie A M, Neuschwander-Tetri B A, Bacon B R. Nonalcoholic steatohepatitis: a proposal for grading and staging the histological lesions. Am J Gastroenterol. 1999; 94:2467-74).” for “data.”

Q-less coq3 yeast = test: Yeast incubated with different ratios of H- and D-PUFA, plate dilution; type: cell-based, S. cerevisiae; conditions: 200 μM total LA and D2-LA at different ratios
Procedure: FIG. 9. […] Wild-type, yeast Q-less coq3, or respiratory deficient cor1 null mutants were incubated in the presence of 200 μM of LA and D2-LA at different ratios of PUFAs. Serial dilutions (1:5) starting at 0.2 OD/ml were spotted on YPD solid plate medium. A zero-time untreated control is shown on the top left. Growth at 30° C.
FIG. 10. […] Serial dilutions (1:5) starting at 0.2 OD/ml were spotted on YPD solid plate medium. Growth at 30° C.
Wild-type, yeast Q-less coq3, or respiratory deficient cor1 null mutants were incubated in the presence of 200 μM of LA and D2-LA at different ratios of PUFAs, as indicated in FIG. 9. Serial dilutions (1:5) starting at 0.2 OD/ml were spotted on YPD solid plate medium. […] Growth was at 30° C.
Serial dilutions (1:5) starting at 0.2 OD/ml were spotted on YPD solid plate medium. Growth was at 30° C.

[2H]C([2H])(/C=C\CCCCC)/C=C\CCCCCCCC(=O)O [D2-LA, 11,11-Dideutero-cis,cis-9,12-Octadecadienoic acid]
systolic blood pressure [1]: reduction in systolic blood pressure | effect during oxidation of mixture with non-deuterated methyl linoleate ([2]; data not shown): qualitatively similar effect | effect on autoxidation of non-deuterated LA in mixture ([2]; mixtures of D2-LA and LA): ‘protects’ the non-deuterated LA against autoxidation | amount of MDA in liver samples (TBARS) [3]: reduce the amount of MDA found in liver samples | histological signs of fatty liver disease [3]: reverse the histological signs of fatty liver disease | levels of lipid peroxidation (C11-Bodipy fluorescence) (Wild-type yeast cells): lower levels of lipid peroxidation similar to yeast not treated with PUFA | amount of MDA in liver samples (TBARS) (NASH (MCD diet) rats): reduce the amount of MDA found in liver samples | histological signs of NASH (NASH (MCD diet) rats): reverse the histological signs of NASH | sufficiently minimal amount to cancel the toxicity of LA (Q-less coq3 yeast): 10-15%
